pIC50: −log10 of the molar value. Values after ≈ are worked out from the molar mass of the structure shown. Like-named read-outs stand apart in the source and are kept apart here.
How the values were obtained:
Wee1 protein = target: T1, Wee1 protein (Homo sapiens, UniProt P30291); test: Binding of compound to Wee1 protein and Tracer 178 by TR-FRET; conditions: inhibitory activity against Wee1 kinase, read-out: IC50 measured value
T1 construct: purchased Thermo Fisher PR7373A
Protocol: First, solutions of the compounds in different concentration gradients were prepared. […] DMSO was added as a positive control (maximal signal control) and a negative control (minimal signal control) and a final level of 0.25% DMSO was ensured in each reaction well.
WEE1 (Thermo Fisher, Cat #PR7373A) protein in buffer (50 mM Hepes pH 7.5, 10 mM MgCl2, 1 mM EGTA, 0.01% Brij-35) at 15 nM) in different concentrations of compound, and Tracer 178 (Invitrogen, PV5593) and MAb Anti-GST-Eu crypate (Cisbio, 61GSTKLA) were added to 384-well plates (Corning, cat #3574), centrifuged at 1000 rpm for 1 min and the 384-well plates were incubated in a constant temperature shaker for 60 min at 25° C. and 300 rpm. Tracer 178 and MAb Anti-GST-Eu crypate were prepared in buffer (50 mM HEPES pH 7.5, 10 mM MgCl2, 1 mM EGTA, 0.01% Brij-35) with a final reaction concentration of 50 nM for Tracer 178 and a final concentration of 2 nM for MAb Anti-GST-Eu crypate, where the negative control (minimal signal control) used an equal amount of buffer in place of the protein solution.
After incubation, readings were performed using BMG PHERAStar (excitation light at 337 nm and emission light at wavelength values of 620 nm and 665 nm to read the fluorescence signal values). […] The IC50 for inhibition of enzyme activity by the compounds was then calculated using GraphPad Prism 6 and fitted with a log (inhibitor) vs. response-Variable slope mode. The fitting equation was: Y=Bottom+(Top-Bottom)/(1+10^((Log IC50−X)*HillSlope)), where Y represents the percentage of residual enzyme activity known and X represents the known concentration of compound after the logarithm.

H1299 cells = test: Anti-proliferative effect by Cell Titer-Glo, H1299; format: cell-based; conditions: Homo sapiens, NCI-H1299, 72 h, read-out: IC50 measured value H1299
Protocol: (§1) Compound solutions of different concentration gradients were prepared. DMSO was dissolved to a concentration of 10 mM test compound and 10 mM reference compound AZD1775, and the compounds were serially diluted in culture medium for a total of 9 dose points, with 2 parallel replicates set at each concentration. The cell growth group without compound was used as a positive control (maximum signal control) and the medium was used as a negative control (minimum signal control), while ensuring that the final level of DMSO in each reaction well was 0.2%. After removing the medium from the 384-well plate, 25 ul of the configured compound at different concentrations was transferred into the well plate and the compound and cells were incubated in the cell incubator at 37° C. with 5% CO2 for 3 days.
(§2) The 384-well plates were removed from the cell incubator and allowed to equilibrate for 1 h to room temperature. 25 ul of Cell Titer-Glo assay was added to each well, lysed on a shaker for 2 min and then read out (Luminescence) using a BMG PHERAStar after 10 min incubation. Calculate the inhibition rate from the luminescence signal: first calculate the average of the positive control (maximum signal control) and the negative control (minimum signal control).
(§3) [formula] to calculate the rate of inhibition of the cells by different concentrations of the compounds. The IC50 of the compound on cell activity inhibition was calculated by fitting a log(inhibitor) vs. response-Variable slope model to GraphPad Prism 6. The fitted equation was: Y=Bottom+(Top−Bottom)/(1+10^((Log IC50−X)*HillSlope)), where Y represents the rate of inhibition and X represents the concentration of the known compound after Log.

MIA Paca-2 cells = test: Anti-proliferative effect by Cell Titer-Glo, MIA Paca-2; format: cell-based; conditions: Homo sapiens, read-out: IC50 measured value MIA Paca-2
Protocol: as §1, §2, §3

[1] = Compound pharmacokinetics in mice; format: in vivo; conditions: male ICR mice, oral gavage 10 mg/kg, plasma; for Cmax / AUC(0-inf) / half-life: mouse; for AUC(0-inf): read-out: AUCinf—Pred; for half-life: read-out: T½ (converted)
Protocol: To investigate the pharmacokinetic properties of the compound in mice, six male ICR mice were given the compound by oral gavage (10 mg/kg) at the corresponding dose, and each route of administration was divided into two groups: group A mice had anticoagulated whole blood collected at 5 min, 30 min, 2 h and 8 h after administration, while group B mice had anticoagulated whole blood collected at 15 min, 1 h, 4 h and 24 h after administration, isolated plasma;
The plasma concentrations of the compounds were determined by LC-MS using a standard curve calibration method. Plasma concentration-time data were fitted to pharmacokinetic parameters using Winnolin 5.2 software.

[2] = Metabolic stability of liver microsomes in vitro (mouse); format: in vitro ADME; conditions: read-out: Mouse T1/2/min
Protocol: (§4) Microsomes were taken out from the −80° C. refrigerator, rapidly melted in a 37° C. water bath and placed on ice until ready to use. The test article was diluted with DMSO to prepare a 10 mM stock solution, and then diluted with acetonitrile to a 0.5 mM secondary stock solution. The microsomes were diluted to 0.75 mg/ml using Buffer C; the secondary stock solution was then added to a final concentration of 1.5 μM of compound as working solution, based on n=2, 5 time points, 350 μL of each compound was prepared and placed on ice prior to use. NADPH was diluted with Buffer C to a working solution of 6 mM for the starter solution. An acetonitrile solution containing an internal standard was prepared as the precipitant, and Verapamil-HCl was chosen as the internal standard at a concentration of 4 ng/ml.
(§5) A round-bottom well plate was taken, noted as the reaction plate, and the prepared working solution for each compound was dispensed into the well plate according to the number of replicates and time points (0 h samples are also added to the reaction plate), 30 μL/well; the plate was incubated at 37° C. for 10 min. A separate plate with pointed bottom wells, noted as a precipitation plate, was added with 135 μL precipitant per well; 0 h samples were transferred to the plate after 10 min incubation and 15 μL of starter solution was added; the plate was placed on ice before centrifugation.
(§6) The diluted starter solution was added in sufficient quantity to the dispensing plate to facilitate the multichannel pipette aspiration operation.
(§7) The reaction was carried out on a warm incubation shaker and 15 μL of starter solution/sample is added to the plate using a multichannel pipette. The reaction was mixed with a slight shake to initiate the reaction, which was accurately timed and recorded using a timer;
(§8) After the reaction time had elapsed, all the solution in the plate was aspirated using the multichannel pipette and added to the precipitation plate to terminate the reaction at that point in time. After all reactions had been terminated, the plates were shaken for ten minutes on a plate shaker at 600 rpm to precipitate the protein. The plate was centrifuged at 4° C. for 15 minutes at maximum rpm. 80 μL of supernatant was taken, 320 μL of pure water was added and mixed for LC-MS analysis.

[3] = Metabolic stability of liver microsomes in vitro (human); format: in vitro ADME; conditions: read-out: Human T1/2/min
Protocol: as §4, §5, §6, §7, §8

[4] = Membrane permeability study (Caco-2); format: in vitro ADME; conditions: human; for efflux ratio at 90 min, 10 µM: Caco-2, pH 7.4, read-out: Efflux Ration; for Papp A→B at 90 min, 10 µM / Papp B→A at 90 min, 10 µM: pH 7.4, Caco-2, 10 μM; for Papp A→B at 90 min, 10 µM: A to B; for Papp B→A at 90 min, 10 µM: B to A
Protocol: Caco-2 cells were purchased from the […] (Rockville, MD). The cell culture medium was modified Eagle's medium (MEM) containing 10% inactivated fetal bovine serum and 1% non-essential amino acids. Cells were inoculated on polycarbonate filter membranes (Cat no. 3396) and incubated at 37° C. in a 5% CO2 incubator.
The cells were incubated for 21-28 days after inoculation for transport experiments and the apparent permeability (Papp) of Lucifer Yellow was used to characterize and verify the compactness of the cell monolayer. A stock solution of 10 mM was prepared by dissolving the compound in DMSO and diluted using Hanks Balanced Salt Solution (HBSS, Invitrogen, Cat #14025-092) containing 25 mM HEPES (pH 7.4) to obtain the working solution. A 10 μM working solution of the compound to be tested was added to the apical side and basolateral side of Caco-2 and incubated at 37° C. for 90 min. After the incubation, dilute the samples on the apical side and basolateral side, and the concentrations of compounds on the apical and basolateral sides were detected by LC-MS/MS, and the concentrations of the compounds were quantified by standard curve.

Solubility test = format: physicochemical; conditions: aqueous buffer, thermodynamic from solid; buffer solution, shaken at constant temperature 24 h
Protocol: The compound was placed in a buffer solution and shaken at constant temperature for 24 h. […] Chromatographic conditions: C18 column, mobile phase A: 0.02 M potassium dihydrogen phosphate:acetonitrile=90:10, mobile phase B: acetonitrile; V: 1.0 ml/min, T: 35° C., λ: 210 nm.

[5] = H1299 cells, 3 days, Cell Titer-Glo
[6] = 72 h, MIA Paca-2 cells, 3 days, Cell Titer-Glo

T1 sequence (P30291 whole entry): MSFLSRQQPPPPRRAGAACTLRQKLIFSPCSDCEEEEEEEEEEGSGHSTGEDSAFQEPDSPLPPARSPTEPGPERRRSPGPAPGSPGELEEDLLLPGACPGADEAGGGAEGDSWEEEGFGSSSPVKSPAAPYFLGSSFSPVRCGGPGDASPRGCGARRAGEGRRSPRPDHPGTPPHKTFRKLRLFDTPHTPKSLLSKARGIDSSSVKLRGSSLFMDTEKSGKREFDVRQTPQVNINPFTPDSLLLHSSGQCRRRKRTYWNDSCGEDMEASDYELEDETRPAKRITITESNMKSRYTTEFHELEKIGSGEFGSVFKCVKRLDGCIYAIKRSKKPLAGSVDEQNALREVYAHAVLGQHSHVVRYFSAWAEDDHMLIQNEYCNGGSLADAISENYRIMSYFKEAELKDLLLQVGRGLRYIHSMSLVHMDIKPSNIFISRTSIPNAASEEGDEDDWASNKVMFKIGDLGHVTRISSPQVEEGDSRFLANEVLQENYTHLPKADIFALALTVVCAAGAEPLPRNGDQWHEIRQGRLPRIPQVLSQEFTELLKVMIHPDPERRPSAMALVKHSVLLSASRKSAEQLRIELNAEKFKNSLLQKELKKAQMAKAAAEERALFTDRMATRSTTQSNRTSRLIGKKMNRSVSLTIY

Row | Structure (SMILES) | pIC50 (Wee1 protein) | pIC50 (H1299 cells; [5]) | pIC50 (MIA Paca-2 cells; [6]) | further results
1 | CN1CCN(c2ccc(Nc3ncc4cnn(-c5ccnc(N=S(C)(C)=O)c5)c4n3)cc2)CC1 [Compound 28] | 6.00 to 7.00 | 4.70 to 5.30 | 5.30 to 6.00 | Cl_pred [1]: 230 mL/min/kg; Cmax [1]: 337 ng/mL; AUC(0-inf) [1]: 743 ng·h/mL; half-life [1]: 107 min
2 | CN1CCC(c2ccc(Nc3ncc4cnn(-c5cccc(N=S(C)(C)=O)n5)c4n3)cc2)CC1 [Compound 18] | 8.00 to 9.00 | 5.30 to 6.00 | 6.00 to 7.00 | half-life at 1 µM [2]: > 120 min; half-life at 1 µM [3]: > 120 min
3 | CN1CCN(c2ccc(Nc3ncc4cnn(-c5ccc6c(c5)C(C)(O)CO6)c4n3)cc2)CC1 (stereo not drawn) [Compound 40] | 7.00 to 8.00 | 6.00 to 7.00 | 6.00 to 7.00 | half-life at 1 µM [2]: 20.4 min; efflux ratio at 90 min, 10 µM [4]: 0.89; Papp A→B at 90 min, 10 µM [4]: 18.6 ×10⁻⁶ cm/s; Papp B→A at 90 min, 10 µM [4]: 16.6 ×10⁻⁶ cm/s; Cl_pred [1]: 405 mL/min/kg; Cmax [1]: 377 ng/mL; AUC(0-inf) [1]: 493 ng·h/mL; half-life [1]: 42 min
4 | CCn1cnc2ccc(-n3ncc4cnc(Nc5ccc(N6CCN(C)CC6)cc5)nc43)cc21 [Compound 45] | 7.00 to 8.00 | 6.00 to 7.00 | 6.00 to 7.00 | half-life at 1 µM [2]: 10.3 min; efflux ratio at 90 min, 10 µM [4]: 1.79; Papp A→B at 90 min, 10 µM [4]: 4.09 ×10⁻⁶ cm/s; Papp B→A at 90 min, 10 µM [4]: 7.34 ×10⁻⁶ cm/s
5 | CN1CCN(c2ccc(Nc3ncc4cnn(-c5ccc6c(c5)c(N)nn6C)c4n3)cc2)CC1 [Compound 49] | 6.00 to 7.00 |  |  | pIC50 (H1299 cells): 5.30 to 6.00; pIC50 (MIA Paca-2 cells; MIA PaCa-2, 72 h): 5.30 to 6.00
6 | CN1CCN(c2ccc(Nc3ncc4cnn(-c5cccc(C6(C#N)CC6)n5)c4n3)cc2)CC1 [Compound 3] | 7.00 to 8.00 |  |  | pIC50 (H1299 cells): 5.30 to 6.00; solubility at 24 h (Solubility test): 60 µg/mL (≈ 133 µM)
7 | CS(C)(=O)=Nc1cccc(-n2ncc3cnc(Nc4ccc(CC5C(=O)C6CCN5CC6)cc4)nc32)n1 (stereo not drawn) [Compound 15] | 7.00 to 8.00 | 5.30 to 6.00 | 6.00 to 7.00 | 
8 | CN1CCN(c2ccc(Nc3ncc4cnn(-c5ccnc(C(C)(C)O)c5)c4n3)cc2)CC1 [Compound 29] | 6.00 to 7.00 | 6.00 to 7.00 | 6.00 to 7.00 | 
9 | COc1cc(Nc2ncc3cnn(-c4cccc(N=S(C)(C)=O)n4)c3n2)ccc1N1CCN(C)CC1 [Compound 26] | 8.00 to 9.00 | 5.30 to 6.00 | 6.00 to 7.00 | 
10 | CN1CCC2(CC1)CCN(c1ccc(Nc3ncc4cnn(-c5cccc(N=S(C)(C)=O)n5)c4n3)cc1)CC2 [Compound 25] | 8.00 to 9.00 | 6.00 to 7.00 | 6.00 to 7.00 | 
11 | CN1CCN(c2ccc(Nc3ncc4c(C(F)(F)F)nn(-c5cccc(C(C)(C)O)c5)c4n3)cc2)CC1 [Compound 35] | 6.00 to 7.00 | 4.70 to 5.30 | 4.70 to 5.30 | 

Source: patent US12649748B2, “Wee1 inhibitor and use thereof” (JIANGSU TASLY DIYI PHARMACEUTICAL CO., LTD., priority 2021, dated 2026)
